Results: US6720313B1, “Biocidal composition containing phosphite ions” (Mattersmiths Holdings Limited, priority 1998, dated 2004)
Values after ≈ are worked out from the molar mass of the structure shown. Where two headings read alike, the source gives them in different places.

Columns and labels:
[1] = metal oxinates; cited from earlier work
[2] = precipitation of solubilised biocides on addition of a higher pH solution; type: physicochemical; conditions: aqueous solutions, pH raised to greater than 5
Source text: We carried out several studies, some in aqueous systems and others on wood subsequent to the biocide formulation being applied, wherein we applied a further solution with higher pH to increase the pH to greater than 5.

[3] = Procedure: These are prepared by addition of stoicheiometric quantities of precursors of the compounds concerned to produce the salt desired.
[4] = type: physicochemical
Source text: We decreased the pH by addition of phosphorous acid.
We have achieved solubility of fenpropimorph of as much as 10% by weight. This high level of solubility remains when that active is also the presence of 10-20% of other biocides.

[5] = cited from earlier work
[6] = tested on: natural fungal inoculum on mini discs of Pinus radiata; test: mini disc trial of fungicidal efficacy; type: cell-based; conditions: compared with untreated control
Procedure: For example, a mini disc trial, typically used to assess formulation efficacy, was used to establish relative efficacy of various formulations. Included in the trial were formulations using both phosphoric acid and phosphorous acid.
These examples were then diluted in water to produce stable solutions and then tested against a natural fungal inoculum on mini discs of Pinus radiata to determine fungicidal efficacy. The following table, Table 5, illustrates the relative performance of each biocide after 3 weeks in an incubator.
These formulations were then diluted and tested using the mini disc method. Also included was an industry standard based on the formulation of U.S. Pat. No. 4,950,685 coded in the trial as KC1 and listed in Table 7.
The formulations were then tested using a mini disc trial with results as disclosed in Table 9.

[7] = cited from earlier work; remark: listed apart in the source
[8] = solubility studies of oxine copper using the invention; type: physicochemical
Source text: We have carried out many solubility studies using the technology of this invention. For example, we are able to produce solutions stable at ambient temperature of oxine copper at concentrations greater than 100 grams per 200 mls of final product. Because the specific gravity of such solutions is approximately […] this yields a solution of oxine copper of 50 per cent weight/volume or more. This concentration is commercially viable to use and eliminates many of the potentially toxic or flammable formulation aids used in prior art solubilisation of oxine copper.

[9] = acids including phosphorous acid; cited from earlier work

Row | Compound | pH complete precipitation [1] | pH initial precipitation [1] | further results
1 | [Al+3].[O-]c1cccc2cccnc12.[O-]c1cccc2cccnc12.[O-]c1cccc2cccnc12 [Aluminium] | 4.7-9.8 | 2.9 | –
2 | [Cd] [Cadmium] | 5.5-13.2 | 4.5 | –
3 | [Ca] [Calcium] | 9.2-12.7 | 6.8 | –
4 | COC(=O)Nc1nc2ccccc2[nH]1 [Carbendazim, methyl benzimidazoyl carbamate] | – | – | effect of adding a solution of higher pH [2]: immediate precipitation
5 | [Co+2].[O-]c1cccc2cccnc12.[O-]c1cccc2cccnc12 [Cobalt] | 4.9-11.6 | 3.6 | pH for dissolution ([3]; transition metal phosphites): <4.5
6 | [Fe+3].[O-]c1cccc2cccnc12.[O-]c1cccc2cccnc12.[O-]c1cccc2cccnc12 [Iron] | 4.1-11.2 | 2.5 | pH for dissolution ([3]; transition metal phosphites): <3.5; Solubility at pH = 7 ([3]; transition metal phosphites, pH = 7): Insoluble
7 | [O-]c1cccc2cccnc12.[O-]c1cccc2cccnc12.[Pb+2] [Lead] | 8.4-12.3 | 4.8 | –
8 | [Mg] [Magnesium] | >8.7 | 7.0 | –
9 | [Mn+2] [Manganese] | 5.9-9.5 | 4.3 | Solubility at pH = 7 [3]: Insoluble; pH for dissolution ([3]; transition metal phosphites): <4.5
10 | [Mo] [Molybdenum] | 3.6-7.3 | 2.0 | –
11 | [Ni+2].[O-]c1cccc2cccnc12.[O-]c1cccc2cccnc12 [Nickel] | 4.6-10.0 | 3.5 | pH for dissolution [3]: <4.5
12 | [O-]c1cccc2cccnc12.[O-]c1cccc2cccnc12.[Zn+2] [Zinc] | >4.4 | 3.3 | –
13 | CC(Cc1ccc(C(C)(C)C)cc1)CN1C[C@@H](C)O[C@@H](C)C1 (some centres unmarked) [fenpropimorph, dimethylethyl phenyl methylpropyl dimethylmorpholine] | – | – | solubility achieved [4]: ≤ 10 % by weight; Solubility ([5]; pH 4.4): 7300 µg/mL (≈ 24100 µM); Solubility ([5]; pH 7): 4.3 µg/mL (≈ 14.2 µM); Solubility ([5]; pH 9): 3.5 µg/mL (≈ 11.5 µM)
14 | OP(O)O [phosphorous acid] | – | – | fungicidal activity of phosphorous acid alone [6]: marginal improvement over the untreated control
15 | Bismuth | 5.2-9.4 | 3.7 | –
16 | Titanium | 4.8-8.6 | 3.6 | –
17 | Tungsten | 5.0-5.7 | 3.5 | –
18 | arsenic | – | – | LD50 Rat [7]: 15 to 293 mg/kg
19 | copper | >3.3 | 3.0 | Solubility at pH = 7 [3]: Insoluble; pH for dissolution ([3]; transition metal phosphites): <3.5
20 | copper 8-hydroxyquinolinolate [oxine copper] | greater than 3.3 | – | solution concentration weight/volume ([8]; ambient temperature): ≥ 50 per cent weight/volume; concentration of solutions stable at ambient temperature ([8]; phosphorous acid solution): greater than 100 grams per 200 mls of final product; effect of adding a solution of higher pH [2]: immediate precipitation; Oral LD50 Rat ([7]; in vivo, po): 10,000 mg/kg
21 | mancozeb | – | – | stability to acids [9]: decomposed by acids
22 | maneb | – | – | stability to acids [9]: decomposed by acids
23 | phosethyl-Al | – | – | stability to acids [9]: decomposed by acids
